From ChEMBL document CHEMBL3044888, “Fungicidal activity of indole derivatives against some plant pathogenic fungi” (J Pestic Sci, 2010)
In brackets after ≈: the same amount, converted by molar mass.

Legend:
[1] = Inhibition of peroxidase activity in Pythium debaryanum; set-up: species or system Globisporangium debaryanum
[2] = Inhibition of polyphenoloxidase activity in Macrophomina phaseoli; set-up: species or system Macrophomina phaseolina
[3] = system: Rhizoctonia solani; test: In vivo effect on peroxidase activity in Rhizoctonia solani assessed as reduced sugar content per gram of dry hyphal at 0.25 times of IC50 concentration (reference value: 17.3 +/- 1 mg/g of dry weight); assay type: functional
[4] = Inhibition of polyphenoloxidase activity in Pythium debaryanum; set-up: species or system Globisporangium debaryanum
[5] = target: T1, Peroxidase (Macrophomina phaseolina (strain MS6) (Charcoal rot fungus), UniProt K2RV19); test: Activation of peroxidase activity in Macrophomina phaseoli
T1 sequence (K2RV19 whole entry): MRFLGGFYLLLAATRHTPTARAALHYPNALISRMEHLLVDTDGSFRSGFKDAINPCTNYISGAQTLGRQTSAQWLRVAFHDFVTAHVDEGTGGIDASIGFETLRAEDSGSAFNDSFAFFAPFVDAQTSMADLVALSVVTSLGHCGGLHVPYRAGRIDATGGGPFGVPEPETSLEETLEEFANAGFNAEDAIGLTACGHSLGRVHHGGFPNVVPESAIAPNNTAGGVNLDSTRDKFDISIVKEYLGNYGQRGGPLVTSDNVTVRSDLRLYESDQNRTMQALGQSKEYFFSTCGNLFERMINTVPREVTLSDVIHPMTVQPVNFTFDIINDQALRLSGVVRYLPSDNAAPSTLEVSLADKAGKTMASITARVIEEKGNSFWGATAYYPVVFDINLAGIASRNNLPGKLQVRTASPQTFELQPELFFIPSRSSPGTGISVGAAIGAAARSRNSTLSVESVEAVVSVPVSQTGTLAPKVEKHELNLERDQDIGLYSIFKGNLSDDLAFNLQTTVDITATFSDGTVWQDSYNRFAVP

[6] = system: Globisporangium debaryanum; test: Inhibition of peroxidase activity in Pythium debaryanum at 1 times of IC50 concentration
[7] = system: Globisporangium debaryanum; test: Fungicidal activity against Pythium debaryanum assessed as inhibition of hyphal growth by radial growth test; assay type: functional, organism-based
[8] = system: Rhizoctonia solani; test: In vivo effect on peroxidase activity in Rhizoctonia solani assessed as non-reducing sugar content per gram of dry hyphal at 0.5 times of IC50 concentration (reference value: 2.8 +/- 0.2 mg/g of dry weight); assay type: functional
[9] = system: Macrophomina phaseolina; test: In vivo effect on peroxidase activity in Macrophomina phaseoli assessed as total soluble sugar content per gram of dry hyphal at 0.25 times of IC50 concentration (reference value: 19.3 +/- 0.7 mg/g of dry weight); assay type: functional
[10] = system: Globisporangium debaryanum; test: Inhibition of peroxidase activity in Pythium debaryanum at 2 times of IC50 concentration
[11] = target: T2, Peroxidase (Macrophomina phaseolina (strain MS6) (Charcoal rot fungus)) (UniProt K2RV19); test: Inhibition of peroxidase activity in Macrophomina phaseoli at 1 times of IC50 concentration
T2 sequence (whole entry): T1 sequence (K2RV19 whole entry)

[12] = target: T2, Peroxidase (Macrophomina phaseolina (strain MS6) (Charcoal rot fungus)); test: Inhibition of peroxidase activity in Macrophomina phaseoli at 2 times of IC50 concentration
[13] = Activation of polyphenoloxidase activity in Pythium debaryanum; set-up: species or system Globisporangium debaryanum
[14] = system: Fusarium culmorum; test: Inhibition of peroxidase activity in Fusarium culmorum at 1 times of IC50 concentration
[15] = system: Fusarium culmorum; test: Inhibition of peroxidase activity in Fusarium culmorum at 2 times of IC50 concentration
[16] = Inhibition of polyphenoloxidase activity in Rhizoctonia solani
[17] = system: Rhizoctonia solani; test: Inhibition of peroxidase activity in Rhizoctonia solani at 0.1 times of IC50 concentration
[18] = Inhibition of peroxidase activity in Fusarium culmorum
[19] = target: T2, Peroxidase (Macrophomina phaseolina (strain MS6) (Charcoal rot fungus)); test: Inhibition of peroxidase activity in Macrophomina phaseoli at 0.5 times of IC50 concentration

SMILES	IC50 [1] [µg/mL]	IC50 [2] [µg/mL]	Activity [3] [mg]	IC50 [4] [µg/mL]	AC50 [5] [µM]	inhibition [6] [%]	IC50 [7] [µg/mL]	Activity [8] [mg]	Activity [9] [mg]	inhibition [10] [%]	inhibition [11] [%]	inhibition [12] [%]	AC50 [13] [µg/mL]	inhibition [14] [%]	inhibition [15] [%]	IC50 [16] [µg/mL]	inhibition [17] [%]	IC50 [18] [µg/mL]	inhibition [19] [%]
CC(=O)n1c(-c2ccccc2)cc2ccccc21	96.14 (≈ 409 µM)	80.2 (≈ 341 µM)	9.6	45.6 (≈ 194 µM)	< 25.1	19.1	15 (≈ 63.8 µM)	0.4	22.2	25.7									
c1ccc(-c2cc3ccccc3[nH]2)cc1 [2-PHENYL-1H-INDOLE]		117.1 (≈ 606 µM)	60.3				17.7 (≈ 91.6 µM)	3.1	9.7		40.7	54.3	35.1 (≈ 182 µM)	60.1	69.2	80.3 (≈ 416 µM)	0	49.9 (≈ 258 µM)	26.7
